Among the test systems are Bacillus cereus AS1.126; Escherichia coli AS1.349; Acinetobacter baumannii; Pseudomonas aeruginosa; Escherichia coli; Staphylococcus aureus.
What all share (test): ≥ marks a high value that may be exact or a test limit, other limits are often not marked, values filed in µg/mL are converted to µM
Assay [1] relates to Escherichia coli ATCC 35218.
Assay [2] concerns Enterococcus faecalis ATCC 29212.
In assay [3] the test system is Pseudomonas aeruginosa ATCC 27853.
The subject of assay [4] is Staphylococcus aureus ATCC 25325.
Assay [5] has as its system Enterococcus faecalis CGMCC 1.595.
In assay [6] the test system is Candida albicans CMCC 98001.
Assay [7] concerns Fusobacterium nucleatum CGMCC 1.2526.
Assay [8] deals with Klebsiella aerogenes CGMCC 1.876.
Assay [9] has as its system Pseudomonas aeruginosa CGMCC 1.860.
Assay [10] concerns Enterobacter cloacae CGMCC 1.58.
For assay [11], the system named is Streptococcus salivarius CGMCC 1.2498.
In assay [12] the test system is Enterococcus faecium CGMCC 1.2334.
Assay [13] deals with Klebsiella pneumoniae subsp. pneumoniae CGMCC 1.176.
The subject of assay [14] is Streptococcus sanguinis CGMCC 1.2497.
Assay [15] relates to Staphylococcus aureus AS1.72.
In assay [16] the test system is Lactobacillus acidophilus CGMCC 1.1854.
Assay [17] concerns Lactococcus lactis AS1.1690.
The subject of assay [18] is Streptococcus mutans CGMCC 1.2500.
For assay [19], the system named is Staphylococcus aureus 4003.
Assay [20] concerns Klebsiella pneumoniae KP2.
Assay [21] deals with Staphylococcus aureus ATCC 6538.
Assay [22] concerns Staphylococcus aureus USA 400.
Assay [23] relates to Staphylococcus aureus NRS 1.
Assay [24] concerns Klebsiella pneumoniae KP1.
Assay [25] relates to Staphylococcus aureus USA 100.
The test system of assay [26] is Staphylococcus aureus RN4220.
Assay [27] relates to Staphylococcus aureus NRS 846.
The test system of assay [28] is Staphylococcus aureus ATCC 43300.
Assay [29] concerns Acinetobacter baumannii AB3.
Assay [30] relates to Acinetobacter baumannii AB2.
Assay [31] deals with Klebsiella pneumoniae KP3.
For assay [32], the system named is Pseudomonas aeruginosa TRPA 111.
The subject of assay [33] is Staphylococcus aureus VRSA4.
For assay [34], the system named is Acinetobacter baumannii AB1.
For assay [35], the system named is Klebsiella pneumoniae KP4.
In assay [36] the test system is Pseudomonas aeruginosa TRPA 108.
In assay [37] the test system is Staphylococcus aureus ATCC BAA-44.
The test system of assay [38] is Staphylococcus epidermidis NRS 101.
Assay [39] deals with Mycobacterium tuberculosis H37Rv.
The test system of assay [40] is Mycobacterium tuberculosis CAS3.
Assay [41] deals with Staphylococcus aureus ATCC 25923.
For assay [42], the system named is Escherichia coli ATCC 25922.
Assay [43] concerns Mycobacterium tuberculosis WXY.
Assay [44] has as its system Pseudomonas aeruginosa H103.
Assay [45] concerns Pseudomonas aeruginosa PAO1.
In assay [46] the test system is Salmonella enterica serovar Typhimurium.
The subject of assay [47] is Mycobacterium tuberculosis FYX.

Values after ≈ are worked out from the molar mass of the structure shown. Values joined by “and” are separate entries in the source; they are usually repeats but may differ in a detail not shown here. Identical values can stand only once. A value given as a limit tells only on which side of the number the result lay.

With `CC(C)[C@H](NC(=O)[C@H](Cc1cnc[nH]1)NC(=O)[C@H](C)NC(=O)[C@H](C)NC(=O)[C@H](CCCCN)NC(=O)[C@H](CCCCN)NC(=O)[C@H](Cc1ccccc1)NC(=O)[C@H](Cc1ccccc1)NC(=O)[C@H](CO)NC(=O)CNC(=O)[C@H](Cc1c[nH]c2ccccc12)NC(=O)CN)C(=O)NCC(=O)O` [GWGSFFKKAAHVG], the MIC (commonly the lowest concentration found to suppress growth) in assay [1] is ≥ 43.6 µM; in assay [2], 57 µM (≈ 79.3 µg/mL); in assay [3] it was 52 µM (≈ 72.4 µg/mL); in assay [4], ≥ 58 µM.
Take `CC[C@H](C)[C@H](N)C(=O)N[C@@H](CCCCN)C(=O)N[C@@H](CCCCN)C(=O)N[C@H](C(=O)N[C@H](C(=O)N[C@@H](CO)C(=O)N[C@@H](CCCCN)C(=O)N[C@H](C(=O)N[C@@H](CCCCN)C(=O)N[C@@H](CCCCN)C(=O)N[C@H](C(=O)N[C@@H](CC(C)C)C(=O)N[C@@H](CCCCN)C(N)=O)C(C)C)[C@@H](C)CC)C(C)C)[C@@H](C)CC` [IKKIVSKIKKVLK]: the MIC in assay [5] worked out at 7.81 µM (≈ 11.9 µg/mL); in assay [6], 6.25 µM (≈ 9.53 µg/mL); in assay [7], 6.25 µM (≈ 9.53 µg/mL); in assay [8] it was 7.81 µM (≈ 11.9 µg/mL); in assay [9] it was 6.25 µM (≈ 9.53 µg/mL); in assay [10] it was 7.81 µM (≈ 11.9 µg/mL). For the same molecule, the MIC is 6.25 µM (≈ 9.53 µg/mL) in assay [11]; 7.81 µM (≈ 11.9 µg/mL) in assay [12]; 6.25 µM (≈ 9.53 µg/mL) in assay [13]; 6.25 µM (≈ 9.53 µg/mL) in assay [14]; 3.12 µM (≈ 4.76 µg/mL) in the assay on Bacillus cereus AS1.126; 6.25 µM (≈ 9.53 µg/mL) in assay [15]. Besides, the MIC stood at 6.25 µM (≈ 9.53 µg/mL) in assay [16], 3.12 µM (≈ 4.76 µg/mL) in [17], 6.25 µM (≈ 9.53 µg/mL) against Escherichia coli AS1.349 and 6.25 µM (≈ 9.53 µg/mL) in assay [18].
For the molecule `NC(N)=NCCC[C@H](NC(=O)[C@H](CCCN=C(N)N)NC(=O)[C@H](Cc1c[nH]c2ccccc12)NC(=O)[C@H](Cc1c[nH]c2ccccc12)NC(=O)[C@H](CCCN=C(N)N)NC(=O)[C@H](CCCN=C(N)N)NC(=O)[C@H](Cc1c[nH]c2ccccc12)NC(=O)[C@H](Cc1c[nH]c2ccccc12)NC(=O)[C@H](CCCN=C(N)N)NC(=O)[C@H](Cc1c[nH]c2ccccc12)NC(=O)[C@H](Cc1c[nH]c2ccccc12)NC(=O)[C@@H](N)CCCN=C(N)N)C(=O)O` [RWWRWWRRWWRR], the MIC in assay [19] worked out at 1.45 µM (≈ 3 µg/mL); in assay [20] it was 15.4 µM (≈ 32 µg/mL); in assay [21], 4 µM (≈ 8.29 µg/mL); in assay [22], 2 µM (≈ 4.14 µg/mL); in the assay with Acinetobacter baumannii it was 2.7 µM (≈ 5.6 µg/mL); in assay [23] it was 1 µM (≈ 2.07 µg/mL). Moreover, the minimal inhibitory concentration (MIC) came to 13 µM (≈ 27 µg/mL) in assay [24]; 3.38 µM (≈ 7 µg/mL) in assay [25]; 2 µM (≈ 4.14 µg/mL) in assay [26]; 16 µM (≈ 33.2 µg/mL) in [27]; 2 µM (≈ 4.14 µg/mL) in assay [28]; 5.31 µM (≈ 11 µg/mL) in [29]. In addition, the MIC in assay [30] is 1.45 µM (≈ 3 µg/mL); in assay [31], 15.4 µM (≈ 32 µg/mL); in assay [32] it was 1.45 µM (≈ 3 µg/mL); with Pseudomonas aeruginosa it was 3.3 µM (≈ 6.84 µg/mL); in [33] it was 5.66 µM (≈ 11.7 µg/mL); in assay [34] it was 2.41 µM (≈ 5 µg/mL). Besides, the minimum inhibitory concentration (MIC) in [35] is 15.4 µM (≈ 32 µg/mL); in [36], 1.93 µM (≈ 4 µg/mL); in assay [37] it was 4 µM (≈ 8.29 µg/mL); in [38], 4 µM (≈ 8.29 µg/mL).
On to `CC[C@H](C)[C@H](NC(=O)[C@H](CCCN=C(N)N)NC(=O)[C@H](CC(C)C)NC(=O)[C@H](CCC(N)=O)NC(=O)[C@@H](N)C(C)C)C(=O)N[C@@H](CCCN=C(N)N)C(=O)N[C@H](C(=O)N[C@@H](C)C(=O)N[C@H](C(=O)N[C@H](C(=O)N[C@@H](CCCN=C(N)N)C(=O)N[C@@H](C)C(N)=O)[C@@H](C)CC)C(C)C)C(C)C` [VQLRIRVAVIRA], for which the MIC is 21 µM and 26.9 µM in assay [39]; ≥ 45.9 µM against Acinetobacter baumannii; 64.9 µM (≈ 90.4 µg/mL) in the assay on Escherichia coli; ≥ 53.8 µM in assay [40]; 27.3 µM and 45.9 µM in [41]; 23 µM (≈ 32 µg/mL) in assay [42]. Besides, the MIC against Pseudomonas aeruginosa is 64.9 µM (≈ 90.4 µg/mL); in assay [43] it was 13.5 µM (≈ 18.7 µg/mL); in [44] it was ≥ 53.8 µM; in [45], 91.8 µM (≈ 128 µg/mL); in assay [46], 23 µM (≈ 32 µg/mL); in [47], 26.9 µM (≈ 37.5 µg/mL). This molecule also registered an MIC in the assay on Staphylococcus aureus of 64.9 µM (≈ 90.4 µg/mL).
